Results taken from patent US20240336596A1, “PARP7 INHIBITOR AND USE THEREOF” (NOVOSTAR PHARMACEUTICALS, LTD., priority 2022, published 2024).

Tests used:
NCI-H1373 cancer cells = test: NCI-H1373 cancer cell growth inhibition (CellTiter-Glo, 144 hours); type: cell-based; conditions: Homo sapiens, 144 hours culture
Outline: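 Cells seeded at 3500/well and dosed after 24 h with a 10-point series from 10 μM down to 0.0005 μM (0.2% DMSO). After 144 h, viability was read by CellTiter-Glo luminescence. Growth inhibition was calculated relative to day-0 and solvent-control RLU, and IC50 was obtained from dose-response curve fits.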

[1] = Pharmacokinetic study in mice (IV and oral gavage); type: in vivo, CD-1 mice; conditions: for AUClast (plasma exposure) relative to RBN-2397 / drug plasma half-life (T1/2) relative to RBN-2397 / drug clearance (CL(iv)) relative to RBN-2397 / maximum blood concentration (Cmax) relative to RBN-2397: mice; for drug plasma half-life (T1/2) relative to RBN-2397 / drug clearance (CL(iv)) relative to RBN-2397: intravenous administration; for drug clearance (CL(iv)) relative to RBN-2397: fraction of RBN-2397 value; for clearance / bioavailability / AUC(0-t) / half-life / Cmax: mouse, plasma, male CD-1 mice; for clearance: read-out: CL(iv) (converted); for bioavailability: oral bioavailability, PO 10 mg/kg vs IV 3 mg/kg
Method: Formulation of intravenous and oral gavage administration solutions: The compounds to be tested were dissolved in solutions formulated with 5% DMSO, 10% solutol HS15, and 85% saline.
Dosage (measured as the amount of compound in the administration solution (mg)/mouse body weight (kg)): 3 mg/kg intravenously (IV), 10 mg/kg oral gavage (PO).
A total of 18 CD-1 mice (Shanghai Jihui Experimental Animal Feeding Co., LTD.), male, weight 28-31 g, were fasted for 12 hours and randomly divided into 2 groups (Group A and Group B) with 9 mice in each group. Animals in Group A were given the compound solution by oral gavage at the dose of 10 mg/kg. Animals in Group B were given the compound solution by tail vein injection at the dose of 3 mg/kg, and blank blood was taken before administration. About 110 μL of venous blood was taken from animals in Group A at 0.25 h, 0.5 h, 1 h, 2 h, 4 h, 8 h, and 24 h after administration. About 110 μL of venous blood was taken from animals in Group B at 0.083 h, 0.25 h, 0.5 h, 1 h, 2 h, 4 h, 8 h, and 24 h after administration, and all were placed in test tubes with heparin, centrifuged, and plasma was collected and stored at −70° C. for testing.
AUClast represents the area under the drug time curve from the beginning of the administration time to the last point, that is, the area surrounded by the blood drug concentration curve to the time axis. CL(iv) represents the drug clearance of intravenous administration; T1/2 represents the plasma half-life of the drug, which refers to the time required for half of the drug to be eliminated from the body. Cmax represents the maximum concentration of the drug in the plasma after administration. F % indicates oral bioavailability of the drug.

[2] = biological target: T1, recombinant human PARP7 protein (Homo sapiens, UniProt Q7Z3E1); test: Inhibition of PARP7 biological enzyme activity (histone-coated plate, Biotin-NAD+, chemiluminescence); type: biochemical; conditions: recombinant human PARP7, Biotin-NAD+ substrate
T1 construct: purchased Abcam ab271651
T1 sequence (Q7Z3E1 1-657): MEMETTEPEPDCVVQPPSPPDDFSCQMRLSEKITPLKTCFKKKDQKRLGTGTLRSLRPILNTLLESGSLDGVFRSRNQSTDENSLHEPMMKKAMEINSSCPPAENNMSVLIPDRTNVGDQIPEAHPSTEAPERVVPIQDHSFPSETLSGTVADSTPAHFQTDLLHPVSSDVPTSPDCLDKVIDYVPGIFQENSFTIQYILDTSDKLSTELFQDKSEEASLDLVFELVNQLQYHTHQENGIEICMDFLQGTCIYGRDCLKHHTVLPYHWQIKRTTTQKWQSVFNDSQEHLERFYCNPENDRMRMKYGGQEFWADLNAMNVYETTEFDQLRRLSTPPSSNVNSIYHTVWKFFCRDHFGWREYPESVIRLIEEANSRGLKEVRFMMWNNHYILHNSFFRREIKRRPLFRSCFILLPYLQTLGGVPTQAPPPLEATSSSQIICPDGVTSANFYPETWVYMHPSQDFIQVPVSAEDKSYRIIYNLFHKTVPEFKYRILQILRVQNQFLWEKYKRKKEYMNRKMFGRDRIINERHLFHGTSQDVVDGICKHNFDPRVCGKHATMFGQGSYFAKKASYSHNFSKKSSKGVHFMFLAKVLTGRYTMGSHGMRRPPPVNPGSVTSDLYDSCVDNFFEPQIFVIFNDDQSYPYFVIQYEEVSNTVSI
Outline: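 Recombinant human PARP7 was preincubated with compound (1000–0.05 nM final) on histone-coated plates for 15 min at 25 °C, then reacted with Biotin-NAD+ for 60 min at 25 °C. Ribosylation was detected by streptavidin-HRP chemiluminescence. IC50 was fitted from % inhibition relative to controls.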

**Q.** Which results are given for `C[C@@H](CONC(=O)CC1CCN(c2ncc(C(F)(F)F)cn2)CC1)Nc1cn[nH]c(=O)c1C(F)(F)F` [Example 17, (S)—N-(2-((6-oxo-5-(trifluoromethyl)-1,6-dihydropyridazin-4-yl)amino)propoxy)-2-(1-(5-(trifluoromethyl)pyrimidin-2-yl)piperidin-4-yl)acetamide]?
**A.** IC50 (NCI-H1373 cancer cells): < 100 nM; AUClast (plasma exposure) relative to RBN-2397 ([1]; 3 mg/kg intravenous injection): about 4.4 times; drug plasma half-life (T1/2) relative to RBN-2397 [1]: 8 times; drug clearance (CL(iv)) relative to RBN-2397 [1]: about ⅕; clearance ([1]; IV 3 mg/kg): 15.5 mL/min/kg; bioavailability [1]: 61.3%; AUC(0-t) ([1]; IV 3 mg/kg): 3210 ng·h/mL; half-life ([1]; IV 3 mg/kg): 1.62 h; AUC(0-t) ([1]; PO 10 mg/kg): 6550 ng·h/mL; Cmax ([1]; PO 10 mg/kg): 5320 ng/mL; AUClast (plasma exposure) relative to RBN-2397 ([1]; oral gavage 10 mg/kg): about 11.3 times; maximum blood concentration (Cmax) relative to RBN-2397 ([1]; oral gavage 10 mg/kg): 7.8 times; IC50 [2]: < 10 nM

**Q.** Which results are given for `C[C@@H](CONC(=O)CC1=CCN(c2ncc(C(F)(F)F)cn2)CC1)Nc1cn[nH]c(=O)c1C(F)(F)F` [Example 25, (S)—N-(2-((6-oxo-5-(trifluoromethyl)-1,6-dihydropyridazin-4-yl)amino)propoxy)-2-(1-(5-(trifluoromethyl)pyrimidin-2-yl)-1,2,3,6-tetrahydropyridin-4-yl)acetamide]?
**A.** IC50 (NCI-H1373 cancer cells): < 100 nM; AUClast (plasma exposure) relative to RBN-2397 ([1]; 3 mg/kg intravenous injection): about 3.8 times; drug plasma half-life (T1/2) relative to RBN-2397 [1]: 27.8 times; drug clearance (CL(iv)) relative to RBN-2397 [1]: about ⅕; clearance ([1]; IV 3 mg/kg): 17.8 mL/min/kg; bioavailability [1]: 75.9%; AUC(0-t) ([1]; IV 3 mg/kg): 2780 ng·h/mL; half-life ([1]; IV 3 mg/kg): 5.55 h; AUC(0-t) ([1]; PO 10 mg/kg): 7060 ng·h/mL; Cmax ([1]; PO 10 mg/kg): 7230 ng/mL; AUClast (plasma exposure) relative to RBN-2397 ([1]; oral gavage 10 mg/kg): ~12.1 times; maximum blood concentration (Cmax) relative to RBN-2397 ([1]; oral gavage 10 mg/kg): 10.6 times
